What is called IC50 is the midpoint of a concentration-inhibition curve.

Where two headings read alike, the source gives them in different places. Where only a bound is given, the exact number is not on record here.

This note sets out measurements from US9540366B2, “Ring-fused heterocyclic compound” (Kyowa Hakko Kirin Co., Ltd., priority 2012, dated 2017).

For assay [1], the system named is morphine-induced pruritus mice. The experiment in a line: Inhibitory effect for pruritus in morphine-induced pruritus mice. It is filed as in vivo. The following applies: given 30 minutes or 1 hour before intrathecal morphine, scratching counted for 30 minutes, male ddY mice. As for the experimental part:
Inhibitory Effect for Pruritus in Morphine-Induced Pruritus Mice
Morphine (1 nmol/5 μL, dissolved in physiological saline) or physiological saline was intrathecally administered between the fifth and sixth lumbar vertebrae of male ddY mice using a microsyringe fitted with a 30-gauge injection needle. Mice to which only morphine was administered were referred to as a control group, and mice to which only physiological saline was administered were referred to as a physiological saline-administered group.
The number of scratching behavior with the hind legs which began to be observed immediately after the morphine administration was measured for 30 minutes. Because mice show continuous scratching actions in each scratching behavior, a series of such actions was counted as a single scratching behavior.
Each test compound was administered 30 minutes or 1 hour before the morphine administration. The test compound was suspended in a 0.5% methylcellulose solution and was prepared plural administration solutions of different concentrations, and each of them was orally administered in a volume of 10 mL/kg.

Assay [2] deals with T1, human Cav3.2 T-type Ca2+ channel (Homo sapiens, UniProt O95180).
T1 construct: expressed in transfected cells; host or cells: KJMGER8 cells (Namalwa cell-derived cell line)
T1 sequence (O95180 whole entry): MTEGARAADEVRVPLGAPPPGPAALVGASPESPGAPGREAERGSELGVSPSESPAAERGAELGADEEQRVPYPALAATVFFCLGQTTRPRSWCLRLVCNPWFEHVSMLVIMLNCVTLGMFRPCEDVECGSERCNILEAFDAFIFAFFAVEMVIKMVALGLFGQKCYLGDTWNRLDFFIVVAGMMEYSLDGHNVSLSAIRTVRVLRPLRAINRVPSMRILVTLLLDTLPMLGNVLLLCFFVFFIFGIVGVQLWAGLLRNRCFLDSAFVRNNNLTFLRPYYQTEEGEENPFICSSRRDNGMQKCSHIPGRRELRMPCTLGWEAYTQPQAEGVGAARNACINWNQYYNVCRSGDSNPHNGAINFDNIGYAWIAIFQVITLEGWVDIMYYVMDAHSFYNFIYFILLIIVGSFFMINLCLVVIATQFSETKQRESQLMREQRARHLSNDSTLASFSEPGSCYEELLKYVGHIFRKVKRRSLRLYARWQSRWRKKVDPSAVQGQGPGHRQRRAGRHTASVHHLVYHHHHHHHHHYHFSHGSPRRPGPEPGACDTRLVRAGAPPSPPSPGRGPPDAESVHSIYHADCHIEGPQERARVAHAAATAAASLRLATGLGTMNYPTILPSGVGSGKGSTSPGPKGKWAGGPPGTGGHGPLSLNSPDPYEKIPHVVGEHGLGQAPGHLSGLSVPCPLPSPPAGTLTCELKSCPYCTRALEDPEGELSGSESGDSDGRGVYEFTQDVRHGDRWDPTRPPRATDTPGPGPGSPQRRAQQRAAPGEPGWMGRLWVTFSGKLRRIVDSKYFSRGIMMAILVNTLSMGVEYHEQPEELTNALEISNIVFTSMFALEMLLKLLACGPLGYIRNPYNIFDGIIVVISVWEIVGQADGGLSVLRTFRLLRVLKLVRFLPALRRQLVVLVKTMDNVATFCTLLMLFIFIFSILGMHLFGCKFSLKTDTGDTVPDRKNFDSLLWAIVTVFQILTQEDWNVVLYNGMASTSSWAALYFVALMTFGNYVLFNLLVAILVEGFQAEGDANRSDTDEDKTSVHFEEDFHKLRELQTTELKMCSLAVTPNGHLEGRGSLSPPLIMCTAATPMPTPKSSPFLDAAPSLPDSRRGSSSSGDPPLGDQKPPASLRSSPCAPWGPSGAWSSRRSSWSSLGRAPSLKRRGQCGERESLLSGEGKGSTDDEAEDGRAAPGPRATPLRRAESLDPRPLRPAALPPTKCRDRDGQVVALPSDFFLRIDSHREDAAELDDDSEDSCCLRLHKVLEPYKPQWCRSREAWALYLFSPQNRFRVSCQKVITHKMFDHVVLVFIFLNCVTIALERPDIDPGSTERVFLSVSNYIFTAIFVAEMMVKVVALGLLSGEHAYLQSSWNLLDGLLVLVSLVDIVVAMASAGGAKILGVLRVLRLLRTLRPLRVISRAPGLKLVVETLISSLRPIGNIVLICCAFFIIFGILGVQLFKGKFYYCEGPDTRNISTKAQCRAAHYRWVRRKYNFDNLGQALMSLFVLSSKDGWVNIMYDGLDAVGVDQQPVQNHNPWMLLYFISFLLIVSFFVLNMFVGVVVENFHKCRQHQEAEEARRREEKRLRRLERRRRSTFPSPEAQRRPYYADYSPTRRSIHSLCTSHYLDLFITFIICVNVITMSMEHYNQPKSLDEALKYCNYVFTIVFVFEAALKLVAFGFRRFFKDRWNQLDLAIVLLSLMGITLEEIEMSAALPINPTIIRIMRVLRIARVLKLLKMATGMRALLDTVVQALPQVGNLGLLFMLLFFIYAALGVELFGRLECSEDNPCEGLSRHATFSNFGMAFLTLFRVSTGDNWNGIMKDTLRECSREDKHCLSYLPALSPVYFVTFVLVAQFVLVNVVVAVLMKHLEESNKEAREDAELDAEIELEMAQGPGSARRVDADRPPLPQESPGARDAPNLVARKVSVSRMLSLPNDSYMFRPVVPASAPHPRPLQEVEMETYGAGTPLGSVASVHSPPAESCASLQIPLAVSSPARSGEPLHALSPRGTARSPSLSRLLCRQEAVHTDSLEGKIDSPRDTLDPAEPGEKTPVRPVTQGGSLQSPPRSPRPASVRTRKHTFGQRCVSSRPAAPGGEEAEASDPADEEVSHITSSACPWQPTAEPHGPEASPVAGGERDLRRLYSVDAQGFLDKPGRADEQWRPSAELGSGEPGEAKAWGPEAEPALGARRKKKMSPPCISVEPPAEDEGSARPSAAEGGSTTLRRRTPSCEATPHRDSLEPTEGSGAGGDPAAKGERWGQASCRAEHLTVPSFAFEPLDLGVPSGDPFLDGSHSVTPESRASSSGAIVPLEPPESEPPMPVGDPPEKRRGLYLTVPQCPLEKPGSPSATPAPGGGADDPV
The experiment in a line: Inhibitory effect for intracellular calcium response via Cav3.2 T-type Ca2+ channels (FLIPR Calcium 3 Assay Kit). It counts as cell-based. Background: A change in cytosolic calcium serves as a functional read-out for many receptors and channels.

[3] abbreviates: human Cav3.2-expressing KJMGER8 cells (Namalwa-derived), calcium response induced by 5 mmol/L CaCl2, 3 μmol/L mibefradil as reference, read-out: IC50 for the human Cav3.2 T-type Ca2+ current.

As for `CC(F)(F)c1nc2cc(C(=O)NC3CCC(F)(F)CC3)c(Cl)cn2c1CC1CCC(F)(F)CC1` [Compound 15, 6-Chloro-N-(4,4-difluorocyclohexyl)-3-[(4,4-difluorocyclohexyl)methyl]-2-(1,1-difluoroethyl)imidazo[1,2-a]pyridine-7-carboxamide], the “inhibition of the increase of the scratching behavior in morphine-induced pruritus mice” value in assay [1] (oral dose of 30 mg/kg or less) is reported as “inhibited the increase of the scratching behavior”. For the same molecule, the IC50 in assay [2] is not above 100 nM.
With `O=C(NC1CCOCC1)c1cc2nc(C(F)(F)F)c(CC3CCC(F)(F)CC3)n2c(Cl)c1Cl` [Compound 193], in assay [1] (oral dose of 10 mg/kg or less), the “inhibition of the increase of the scratching behavior in morphine-induced pruritus mice” value is on record as “inhibited the increase of the scratching behavior”.
On to `Cc1cc(C(=O)NC2CCOCC2)cc2nc(C(F)(F)F)c(Cc3ccc(Cl)cc3)n12` [Compound 208, 3-(4-Chlorobenzyl)-5-methyl-N-(tetrahydro-2H-pyran-4-yl)-2-(trifluoromethyl)imidazo[1,2-a]pyridine-7-carboxamide], for which the “inhibition of the increase of the scratching behavior in morphine-induced pruritus mice” value in assay [1] (oral dose of 10 mg/kg or less) is “inhibited the increase of the scratching behavior”. Moreover, the IC50 in assay [2] was not above 100 nM.
Consider `CC(F)(F)c1nc2cc(C(=O)N[C@H]3C[C@@H]4CC[C@H]3O4)cc(C#N)n2c1CC1CCC(F)(F)CC1` [Compound 183, N-[(1R,2S,4S)-7-Oxabicyclo[2.2.1]heptan-2-yl]-5-cyano-3-[(4,4-difluorocyclohexyl)methyl]-2-(1,1-difluoroethyl)imidazo[1,2-a]pyridine-7-carboxamide], for which the “inhibition of the increase of the scratching behavior in morphine-induced pruritus mice” value in assay [1] (oral dose of 10 mg/kg or less) was “inhibited the increase of the scratching behavior”. Moreover, in assay [2], the IC50 was not above 100 nM.
For `CC(C)(CNC(=O)c1cc(Cl)n2c(CC3CCC(F)(F)CC3)c(C(F)(F)F)nc2c1)S(C)(=O)=O` [Compound 197, 5-Chloro-3-[(4,4-difluorocyclohexyl)methyl]-N-[2-methyl-2-(methylsulfonyl)propyl]-2-(trifluoromethyl)imidazo[1,2-a]pyridine-7-carboxamide] the same measures were “inhibited the increase of the scratching behavior” and not above 100 nM.
For `[2H]C([2H])([2H])OC(C)(C)CNC(=O)c1cc(C#N)n2c(CC3CCC(F)(F)CC3)c(C(F)(F)F)nc2c1` [Compound 186, 5-Cyano-3-[(4,4-difluorocyclohexyl)methyl]-N-(2-methoxy-d3-2-methylpropyl)-2-(trifluoromethyl)imidazo[1,2-a]pyridine-7-carboxamide] the same measures were “inhibited the increase of the scratching behavior” and not above 100 nM.
Regarding `[2H]C([2H])([2H])OC(C)(C)CNC(=O)c1cc(C#N)n2c(CC3CCC(F)(F)CC3)c(C(C)(F)F)nc2c1` [Compound 194, 5-Cyano-3-[(4,4-difluorocyclohexyl)methyl]-2-(1,1-difluoroethyl)-N-(2-methoxy-d3-2-methylpropyl)imidazo[1,2-a]pyridine-7-carboxamide], in assay [1] (oral dose of 10 mg/kg or less), the “inhibition of the increase of the scratching behavior in morphine-induced pruritus mice” value was “inhibited the increase of the scratching behavior”. The IC50 in assay [2] is not above 100 nM.
Consider `O=C(NC1CC2(COC2)C1)c1cc(Cl)n2c(CC3CCC(F)(F)CC3)c(C(F)(F)F)nc2c1` [Compound 129, 5-Chloro-3-[(4,4-difluorocyclohexyl)methyl]-N-(2-oxaspiro[3.3]heptan-6-yl)-2-(trifluoromethyl)imidazo[1,2-a]pyridine-7-carboxamide], for which the “inhibition of the increase of the scratching behavior in morphine-induced pruritus mice” value in assay [1] (oral dose of 30 mg/kg or less) is listed as “inhibited the increase of the scratching behavior”.
On to `Cc1cc(C(=O)C(O)C2CCOCC2)cc2nc(C(F)(F)F)c(CC3CCC(F)(F)CC3)n12` (stereo not drawn) [Compound 83, 1-{3-[(4,4-Difluorocyclohexyl)methyl]-5-methyl-2-(trifluoromethyl)imidazo[1,2-a]pyridin-7-yl}-2-hydroxy-2-(tetrahydro-2H-pyran-4-yl)ethanone], for which, in assay [2] (setting [3]), the IC50 was not above 100 nM.
In the case of `O=C(NCC1(O)CC1)c1cc(Cl)n2c(CC3CCC(F)(F)CC3)c(C(F)(F)F)nc2c1` [Compound 125, 5-Chloro-3-[(4,4-difluorocyclohexyl)methyl]-N-[(1-hydroxycyclopropyl)methyl]-2-(trifluoromethyl)imidazo[1,2-a]pyridine-7-carboxamide], in assay [2], the IC50 is not above 100 nM.
On the same count and under the same terms, in the case of `O=C(NCC1(O)CCOCC1)c1cc(Cl)n2c(CC3CCC(F)(F)CC3)c(C(F)(F)F)nc2c1` [Compound 86, 5-Chloro-3-[(4,4-difluorocyclohexyl)methyl]-N-[(4-hydroxytetrahydro-2H-pyran-4-yl)methyl]-2-(trifluoromethyl)imidazo[1,2-a]pyridine-7-carboxamide] it was not above 100 nM.
Regarding `Cc1cc(CNC(=O)c2cc(Cl)n3c(CC4CCC(F)(F)CC4)c(C(F)(F)F)nc3c2)[nH]n1` [Compound 152, 5-Chloro-3-[(4,4-difluorocyclohexyl)methyl]-N-[(3-methyl-1H-pyrazol-5-yl)methyl]-2-(trifluoromethyl)imidazo[1,2-a]pyridine-7-carboxamide], the IC50 in assay [2] (setting [3]) is not above 100 nM.
Regarding `CC(F)(F)c1nc2cc(C(=O)NC3CCOCC3)cc(C=O)n2c1CC1CCC(F)(F)CC1` [Compound 158, 3-[(4,4-Difluorocyclohexyl)methyl]-2-(1,1-difluoroethyl)-5-formyl-N-(tetrahydro-2H-pyran-4-yl)imidazo[1,2-a]pyridine-7-carboxamide], in assay [2], the IC50 is not above 100 nM.
Consider `CC(F)(F)c1nc2cc(C(=O)NC3CCC3)c(Cl)cn2c1CC1CCC(F)(F)CC1` [Compound 22, 6-Chloro-N-cyclobutyl-3-[(4,4-difluorocyclohexyl)methyl]-2-(1,1-difluoroethyl)imidazo[1,2-a]pyridine-7-carboxamide], for which the IC50 in assay [2] was not above 100 nM.
On the same count and under the same terms, then `Cc1cc(C(=O)NC2CC3(COC3)C2)cc2nc(C(C)(C)C)c(CC3CCC(F)(F)CC3)n12` [Compound 137, 2-tert-Butyl-3-[(4,4-difluorocyclohexyl)methyl]-5-methyl-N-(2-oxaspiro[3.3]heptan-6-yl)imidazo[1,2-a]pyridine-7-carboxamide], with not above 100 nM.
For the molecule `N#Cc1cc(C(=O)N2CCOC2=O)cc2nc(C(F)(F)F)c(CC3CCC(F)(F)CC3)n12` [Compound 150, 3-[(4,4-Difluorocyclohexyl)methyl]-7-(2-oxoxazolidine-3-carbonyl)-2-(trifluoromethyl)imidazo[1,2-a]pyridine-5-carbonitrile], in assay [2] (setting [3]), the IC50 is not above 100 nM.
As to `Cc1cc(C(C)C(=O)NC2CCOCC2)cc2nc(C(F)(F)F)c(CC3CCC(F)(F)CC3)n12` (stereo not drawn) [Compound 89, 2-{3-[(4,4-Difluorocyclohexyl)methyl]-5-methyl-2-(trifluoromethyl)imidazo[1,2-a]pyridin-7-yl}-N-(tetrahydro-2H-pyran-4-yl)propanamide], the concentration for half-maximal inhibition (IC50) in assay [2] is not above 100 nM.
Take `COc1ccc(Cc2c(C(F)(F)F)nc3cc(C(=O)NC4CCOCC4)cc(C)n23)cc1` [Compound 209, 3-(4-Methoxybenzyl)-5-methyl-N-(tetrahydro-2H-pyran-4-yl)-2-(trifluoromethyl)imidazo[1,2-a]pyridine-7-carboxamide]: the IC50 in assay [2] was not above 100 nM.
